Legend:
Test in all cases: normalised viability (% of control), CellTiter-Blue; higher = more viable cells (about 100 = DMSO control)
Conditions in all cases: incubation time: 72 h
CAL-51 [1] = system: CAL-51
Experimental: (§1)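 DSRT, CellTiter-Blue viability, 72 h incubation. Signal is normalised to DMSO and benzethonium chloride controls. Value is the normalised response at dose 3.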

MDA-MB-231 = system: MDA-MB-231
Experimental: as §1

CAL-120 [2] = system: CAL-120
Experimental: as §1

MDA-MB-436 [3] = system: MDA-MB-436
Experimental: as §1

DU-4475 [4] = system: DU-4475
Experimental: as §1

HCC1937 [5] = system: HCC1937
Experimental: as §1

MDA-MB-453 = system: MDA-MB-453
Experimental: as §1

HCC1599 [6] = system: HCC1599
Experimental: as §1

MDA-MB-468 = system: MDA-MB-468
Experimental: as §1

CAL-85-1 = system: CAL-85-1
Experimental: as §1

MFM-223 [7] = system: MFM-223
Experimental: as §1

HDQ-P1 [8] = system: HDQ-P1
Experimental: as §1

BT-549 [9] = system: BT-549
Experimental: as §1

BT-474 = system: BT-474
Experimental: as §1

HCC1143 [10] = system: HCC1143
Experimental: as §1

SK-BR-3 [11] = system: SK-BR-3
Experimental: as §1

Hs578T = system: Hs578T
Experimental: as §1

CAL-148 [12] = system: CAL-148
Experimental: as §1

CAL-51 [13] = system: CAL-51; remark: listed apart in the source
Outline: (§2)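 Normalised viability is given for a single listed concentration of the series. In 384-well plates, breast cancer cell lines were incubated 72 h with compound, then read with CellTiter-Blue (2 h, 37 °C) at 560/590 nm. Per-plate scaling set vehicle to 100 and a positive kill control to 0, with Z'-factor quality control.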

CAL-120 [14] = system: CAL-120; remark: listed apart in the source
Outline: as §2

MDA-MB-436 [15] = system: MDA-MB-436; remark: listed apart in the source
Outline: as §2

DU-4475 [16] = system: DU-4475; remark: listed apart in the source
Outline: as §2

HCC1937 [17] = system: HCC1937; remark: listed apart in the source
Outline: as §2

HCC1599 [18] = system: HCC1599; remark: listed apart in the source
Outline: as §2

MFM-223 [19] = system: MFM-223; remark: listed apart in the source
Outline: as §2

HDQ-P1 [20] = system: HDQ-P1; remark: listed apart in the source
Outline: as §2

BT-549 [21] = system: BT-549; remark: listed apart in the source
Outline: as §2

HCC1143 [22] = system: HCC1143; remark: listed apart in the source
Outline: as §2

SK-BR-3 [23] = system: SK-BR-3; remark: listed apart in the source
Outline: as §2

CAL-148 [24] = system: CAL-148; remark: listed apart in the source
Outline: as §2

O=C(c1ccc(OCCN2CCCCC2)cc1)c1c(-c2ccc(O)cc2)sc2cc(O)ccc12 [Raloxifene]
Conditions | normalised viability [%]
BT-474, 100 nM | 107
BT-549 [9], 100 nM | 87.2
BT-549 [21], 10 nM | 77.5
BT-549 [21], 1000 nM | 101
BT-549 [21], 10000 nM | 56.8
CAL-51 [1], 10 nM | 99.6
CAL-51 [13], 3 nM | 102
CAL-51 [13], 30 nM | 99.7
CAL-51 [13], 100 nM | 93.7
CAL-85-1, 10 nM | 101
CAL-120 [2], 100 nM | 102
CAL-120 [14], 10 nM | 99.6
CAL-120 [14], 1000 nM | 98.2
CAL-120 [14], 10000 nM | 91.8
CAL-148 [12], 10 nM | 100
CAL-148 [24], 3 nM | 95.2
CAL-148 [24], 30 nM | 98.6
CAL-148 [24], 100 nM | 93.8
DU-4475 [4], 10 nM | 105
DU-4475 [16], 3 nM | 105
DU-4475 [16], 30 nM | 108
DU-4475 [16], 100 nM | 104
HCC1143 [10], 100 nM | 109
HCC1143 [22], 10 nM | 114
HCC1143 [22], 1000 nM | 98.7
HCC1143 [22], 10000 nM | 96.8
HCC1599 [6], 100 nM | 104
HCC1599 [18], 10 nM | 95.7
HCC1599 [18], 1000 nM | 103
HCC1599 [18], 10000 nM | 102
HCC1937 [5], 100 nM | 110
HCC1937 [17], 10 nM | 89.3
HCC1937 [17], 1000 nM | 93.3
HCC1937 [17], 10000 nM | 96.2
HDQ-P1 [8], 10 nM | 90.2
HDQ-P1 [20], 3 nM | 90.2
HDQ-P1 [20], 30 nM | 97.5
HDQ-P1 [20], 100 nM | 107
Hs578T, 100 nM | 104
MDA-MB-231, 100 nM | 89.3
MDA-MB-436 [3], 100 nM | 107
MDA-MB-436 [15], 10 nM | 104
MDA-MB-436 [15], 1000 nM | 86.3
MDA-MB-436 [15], 10000 nM | 76.2
MDA-MB-453, 10 nM | 107
MDA-MB-468, 100 nM | 105
MFM-223 [7], 100 nM | 84.3
MFM-223 [19], 10 nM | 99.8
MFM-223 [19], 1000 nM | 86.2
MFM-223 [19], 10000 nM | 80.6
SK-BR-3 [11], 100 nM | 115
SK-BR-3 [23], 10 nM | 94
SK-BR-3 [23], 1000 nM | 94.7
SK-BR-3 [23], 10000 nM | 103

Cn1c(=O)c(F)c(Nc2ccc(I)cc2F)c2c(=O)n(C[C@@H](O)CO)cnc21 [TAK-733]
Conditions | normalised viability [%]
BT-474, 10 nM | 123
BT-549 [9], 10 nM | 97.4
BT-549 [21], 1 nM | 92
BT-549 [21], 100 nM | 81.8
BT-549 [21], 1000 nM | 103
CAL-51 [1], 1 nM | 103
CAL-51 [13], 0.3 nM | 107
CAL-51 [13], 3 nM | 88.7
CAL-51 [13], 10 nM | 90.1
CAL-85-1, 1 nM | 107
CAL-120 [2], 10 nM | 92.7
CAL-120 [14], 1 nM | 92.4
CAL-120 [14], 100 nM | 74.7
CAL-120 [14], 1000 nM | 56.3
CAL-148 [12], 1 nM | 92.6
CAL-148 [24], 0.3 nM | 95
CAL-148 [24], 3 nM | 99.5
CAL-148 [24], 10 nM | 99.5
DU-4475 [4], 1 nM | 98
DU-4475 [16], 0.3 nM | 84.7
DU-4475 [16], 3 nM | 56.7
DU-4475 [16], 10 nM | 15.3
HCC1143 [10], 10 nM | 77
HCC1143 [22], 1 nM | 94.1
HCC1143 [22], 100 nM | 68.6
HCC1143 [22], 1000 nM | 56.4
HCC1599 [6], 10 nM | 86.2
HCC1599 [18], 1 nM | 94.8
HCC1599 [18], 100 nM | 74.6
HCC1599 [18], 1000 nM | 70.5
HCC1937 [5], 10 nM | 100
HCC1937 [17], 1 nM | 121
HCC1937 [17], 100 nM | 104
HCC1937 [17], 1000 nM | 74
HDQ-P1 [8], 1 nM | 118
HDQ-P1 [20], 0.3 nM | 113
HDQ-P1 [20], 3 nM | 118
HDQ-P1 [20], 10 nM | 91.6
Hs578T, 10 nM | 86.8
MDA-MB-231, 10 nM | 54.9
MDA-MB-436 [3], 10 nM | 100
MDA-MB-436 [15], 1 nM | 112
MDA-MB-436 [15], 100 nM | 84.1
MDA-MB-436 [15], 1000 nM | 88.9
MDA-MB-453, 1 nM | 123
MDA-MB-468, 10 nM | 91.5
MFM-223 [7], 10 nM | 80.3
MFM-223 [19], 1 nM | 90.4
MFM-223 [19], 100 nM | 79.8
MFM-223 [19], 1000 nM | 64.5
SK-BR-3 [11], 10 nM | 99.4
SK-BR-3 [23], 1 nM | 106
SK-BR-3 [23], 100 nM | 102
SK-BR-3 [23], 1000 nM | 112

From the supplement of paper PMC4862054
